This is an account of results in patent US11306095B2 (EAST CHINA UNIVERSITY OF SCIENCE AND TECHNOLOGY, priority 2015, dated 2022).

In brackets after ≈: the same amount, converted by molar mass. Where two headings read alike, the source gives them in different places. A value given as a limit tells only on which side of the number the result lay.

One data set deals with T1, Wild type EGFR (Homo sapiens, UniProt P00533).
T1 construct: purchased Invitrogen PV3872
The experiment in a line: Kinase activity test (FRET), wild type EGFR. It counts as biochemical. The protocol: (§1) EGFR-TK catalyses transfer of one phosphate group of adenosine triphosphate (ATP) to polypeptide substrate, poly(Glu, Tyr)4:1, which is labeled with two fluorescent groups coumarin and fluorescein.
(§2) 2.5 μL of Test Compounds, 5 μL Kinase/Peptide Substrate Mixture, 2.5 μL ATP Solution were added into a 384-well plate, and the 10 μL of reaction system was shaken for 30 s and incubated at room temperature for 1 h. 5 μL of Development Solution was added and the 15 μL of reaction system was shaken for 30 s, and incubated at room temperature for 1 h. […] The inhibitory rates of the compounds at 7 concentration gradients were determined and the IC50 value for each compound was calculated by Origin 8.0 fitting curve.
(§3) 10 concentration gradients from 5.1×10^−11 mol/L to 1.0×10^−6 mol/L were set for all compounds to be tested.
(§4) Compounds were diluted in DMSO for three times from 5.1×10^−9 M to 1×10^−4 M. 4 μL of the compound was dissolved in 96 μL of water to obtain a 4× compound solution. […] The 10 μL kinase reaction consisted of 2.5 μL compound solution, 5 μL kinase/peptide mix, 2.5 μL ATP solution. […] 5 μL of phosphorylated peptide solution, instead of the kinase/peptide mixture, was used as a 100% phosphorylation control. […] The plates were thoroughly mixed and incubated at room temperature for 1.5 hours. 5 μL of Development Solution was added into each well and then incubated for another 1 hour at room temperature, unphosphorylated peptides were cleaved during this period. Finally, 5 μL Stop Reagent was added to quench the reaction. The plates were measured with EnVision Multilabel Reader (Perkin Elmer). The experimental data were calculated using GraphPad Prism version 4.0. Each experiment was repeated more than 3 times.

For another data set, the target named is T2, EGFR-L858R/T790M (Homo sapiens, UniProt P00533, L858R/T790M).
T2 construct: purchased Invitrogen PV4879
Description: Kinase activity test (FRET), EGFR T790M/L858R. It counts as biochemical. How it is done:
as §1, §2, §3, §4

In data set [1] the test system is H1975 cells (EGFR L858R/T790M). Description: Inhibitory activity on cell proliferation, H1975. As to conditions: Homo sapiens, NCI-H1975. It counts as cell-based. How it is done:
(§5) Cell proliferation activity was assessed by MTS assay. Cells were exposed to processing conditions for 72 hours and the number of cells used in each experiment for each cell line was adjusted based on absorbance values (absorbance values at 490 nm, 1.3-2.2). Six concentration gradients (0.1 nM-10 μM) were set for the compounds to be tested, wherein at least 6 sets of parallel controls for each concentration were used.
(§6) H1975, A431 cells were cultured in corresponding media, and cells were passaged at least twice after resuscitation and then used for experiments. Cells at Log phase were trypsinized and resuspended in culture medium. H1975 (1000 cells per well), A431 (2000 cells per well) were seeded in 96-well plates in a volume of 100 μL; and 6 sets of parallel controls and 7 columns were set. The plate was placed in a 37° C. 5% CO2 incubator overnight. Compounds were dissolved in DMSO to a concentration of […], and then the concentration was gradually diluted to 10 μM, 1 μM, 0.1 μM, 0.01 μM, 0.001 μM, 0.0001 μM per liter, respectively. 2 μL of the compound solution was added to 998 μL of medium, and the mixture was thoroughly mixed. 100 μL of the mixture was added to a 96-well plate. […] After culturing for 68 hours, 20 μL of MTT (5 mg/mL) was added. After 4 hours, the supernatant was discarded and 150 μL of DMSO was added. After shaking for 10 minutes, the plate was read with Synergy HT (Bio TeK) (OD490). Data were calculated using GraphPad Prism version 4.0 and IC50 values were obtained using a non-linear regression model of dose response curve.

Data set [2] concerns A431 cells (EGFR wild type). The experiment in a line: Inhibitory activity on cell proliferation, A431. It counts as cell-based. To be noted: Homo sapiens, A-431. The protocol:
as §5, §6

Data set [3] can be described thus: Determination of solubility in water (PBS 20 mM, pH 6.8). The format is physicochemical. As to conditions: PBS buffer, aqueous buffer, thermodynamic from solid. How it is done:
The suspension was filtered through a 0.22 μm PVDF filter, and then diluted to an appropriate concentration with methanol (v=50%) and PBS (v=50%), and the absorbance was measured by a UV spectrophotometer. About 3 mg of compound was accurately weighed, and methanol was added for preparing a stock solution of 1 mg/mL. The above stock solution was taken and prepared into a solution at concentrations of 0.05, 0.04, 0.03, 0.02 and 0.01 mg/mL, respectively, PBS solution (v=50%) was added and the absorbance value was measured. Concentration c (mg/mL) as horizontal ordinate vs absorbance A as longitudinal coordinate was plotted, and a line was fitted for obtaining a standard curve (correlation coefficient greater than 0.998). The solubility of a compound in water was calculated from the standard curve.

The mark [4] stands for this setting: Compound 53 before and after resolution, read-out: Inhibitory IC50 means (nM) ± SD value on tyrosine kinase activity EGFR.
The mark [5] stands for this setting: Compound 53 before and after resolution, read-out: Inhibitory IC50 means (nM) ± SD value on tyrosine kinase activity EGFR/T790M/L858R.
Where [6] appears, read: Compound 53 before and after resolution, read-out: Inhibitory IC50 means (μM) ± SD value on tumor cell growth activity NCI-H1975.
Where [7] appears, read: Compound 53 before and after resolution, read-out: Inhibitory IC50 means (μM) ± SD value on tumor cell growth activity A431.
Setting [8] is: wild type EGFR, read-out: Inhibitory activity of EGFR on kinase (IC50, nM) WT.
The mark [9] stands for this setting: EGFR T790M/L858R, read-out: Inhibitory activity of EGFR on kinase (IC50, nM) T790M/L858R.
The mark [10] stands for this setting: H1975, 72 hours, read-out: Inhibitory activity on proliferation of cells (IC50, μM) H1975.
Setting [11] is: A431, 72 hours, read-out: Inhibitory activity on proliferation of cells (IC50, μM) A431.
[12] abbreviates: pH 6.8, 20 mM PBS, read-out: Solubility (pH 6.8, g/mL).
Setting [13] is: wild type EGFR, read-out: Inhibitory activity of EGFR on kinase (IC50) WT.
Where [14] appears, read: EGFR T790M/L858R, read-out: Inhibitory activity of EGFR on kinase (IC50) T790M/L858R.

T1 sequence (P00533 25-1210): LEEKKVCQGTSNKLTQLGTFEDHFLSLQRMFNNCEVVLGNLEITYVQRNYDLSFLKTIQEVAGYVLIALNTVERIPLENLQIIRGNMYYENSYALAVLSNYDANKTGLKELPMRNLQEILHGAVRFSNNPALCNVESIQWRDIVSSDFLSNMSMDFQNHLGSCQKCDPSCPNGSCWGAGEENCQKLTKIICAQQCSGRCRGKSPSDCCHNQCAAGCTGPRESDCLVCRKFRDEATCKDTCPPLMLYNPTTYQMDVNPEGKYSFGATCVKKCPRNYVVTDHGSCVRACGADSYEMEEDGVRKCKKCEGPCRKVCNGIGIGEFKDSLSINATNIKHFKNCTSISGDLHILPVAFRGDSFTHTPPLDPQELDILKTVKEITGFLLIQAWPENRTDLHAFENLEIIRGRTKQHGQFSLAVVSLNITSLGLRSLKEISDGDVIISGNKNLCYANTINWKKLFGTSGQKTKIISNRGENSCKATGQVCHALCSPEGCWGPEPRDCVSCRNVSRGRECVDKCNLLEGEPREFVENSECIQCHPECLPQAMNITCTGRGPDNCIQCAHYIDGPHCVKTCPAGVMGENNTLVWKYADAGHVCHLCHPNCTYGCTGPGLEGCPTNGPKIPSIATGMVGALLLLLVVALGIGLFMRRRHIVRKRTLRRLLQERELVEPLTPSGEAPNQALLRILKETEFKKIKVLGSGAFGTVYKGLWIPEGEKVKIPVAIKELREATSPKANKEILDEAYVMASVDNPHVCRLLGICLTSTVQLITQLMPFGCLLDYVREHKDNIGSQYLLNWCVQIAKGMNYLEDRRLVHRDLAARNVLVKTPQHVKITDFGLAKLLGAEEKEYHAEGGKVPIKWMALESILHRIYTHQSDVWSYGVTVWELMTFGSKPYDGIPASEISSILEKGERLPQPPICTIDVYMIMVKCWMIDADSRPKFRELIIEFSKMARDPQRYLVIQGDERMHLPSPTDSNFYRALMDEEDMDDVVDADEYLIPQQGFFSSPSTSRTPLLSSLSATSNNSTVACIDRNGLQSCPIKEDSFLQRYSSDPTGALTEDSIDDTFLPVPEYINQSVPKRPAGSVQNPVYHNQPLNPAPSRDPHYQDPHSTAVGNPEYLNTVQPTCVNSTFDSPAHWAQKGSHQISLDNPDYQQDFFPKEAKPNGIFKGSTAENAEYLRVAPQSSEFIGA
T2 sequence (P00533 25-1210 T790M/L858R): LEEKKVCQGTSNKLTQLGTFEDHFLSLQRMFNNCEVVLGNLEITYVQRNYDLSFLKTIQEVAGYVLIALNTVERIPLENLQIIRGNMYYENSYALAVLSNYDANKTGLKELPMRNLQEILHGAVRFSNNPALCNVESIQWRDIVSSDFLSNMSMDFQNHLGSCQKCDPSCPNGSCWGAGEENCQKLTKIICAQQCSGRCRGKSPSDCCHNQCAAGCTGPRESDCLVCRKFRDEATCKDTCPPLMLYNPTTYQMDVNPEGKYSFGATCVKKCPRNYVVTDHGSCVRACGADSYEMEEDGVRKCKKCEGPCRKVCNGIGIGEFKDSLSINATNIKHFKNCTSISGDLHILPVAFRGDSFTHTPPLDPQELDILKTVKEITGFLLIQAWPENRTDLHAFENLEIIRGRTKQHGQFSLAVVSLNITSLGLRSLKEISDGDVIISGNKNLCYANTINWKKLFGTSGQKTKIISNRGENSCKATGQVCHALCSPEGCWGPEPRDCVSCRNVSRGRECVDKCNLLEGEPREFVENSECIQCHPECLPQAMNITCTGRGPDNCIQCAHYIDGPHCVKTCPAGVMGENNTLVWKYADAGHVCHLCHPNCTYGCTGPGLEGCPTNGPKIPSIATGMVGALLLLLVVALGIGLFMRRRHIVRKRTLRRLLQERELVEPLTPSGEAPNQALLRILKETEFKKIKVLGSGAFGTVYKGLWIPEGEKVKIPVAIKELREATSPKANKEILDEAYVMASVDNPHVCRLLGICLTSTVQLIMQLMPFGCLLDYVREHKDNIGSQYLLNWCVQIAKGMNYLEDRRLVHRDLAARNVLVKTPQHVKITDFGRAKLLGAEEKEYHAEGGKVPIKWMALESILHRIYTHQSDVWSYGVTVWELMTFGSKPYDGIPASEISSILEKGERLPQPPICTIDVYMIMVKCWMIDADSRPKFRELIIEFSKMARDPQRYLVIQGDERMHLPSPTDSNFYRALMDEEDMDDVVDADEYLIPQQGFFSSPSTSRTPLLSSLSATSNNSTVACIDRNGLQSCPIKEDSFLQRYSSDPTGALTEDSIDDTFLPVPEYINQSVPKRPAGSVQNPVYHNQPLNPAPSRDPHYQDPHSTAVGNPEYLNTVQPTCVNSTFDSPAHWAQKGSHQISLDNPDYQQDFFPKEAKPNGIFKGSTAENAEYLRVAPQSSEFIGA

For `C=CC(=O)N1CCC[C@@H](Cn2c(=O)c(-c3ccccc3)nc3cnc(Nc4ccc(N5CCN(C)CC5)cc4OC)nc32)C1` [53-1 (R)], the IC50 was 273 ± 38 nM at Wild type EGFR (setting [4]), 295 ± 85 nM on EGFR-L858R/T790M (setting [5]), above 10 µM in data set [1] (setting [6]) and 5.31 ± 1.04 µM in data set [2] (setting [7]).
With `C=CC(=O)N1CCC[C@H](Cn2c(=O)c(-c3ccccc3)nc3cnc(Nc4ccc(N5CCN(C)CC5)cc4OC)nc32)C1` [53-2 (S)], the IC50 is 8 ± 0.8 nM on Wild type EGFR (setting [4]), 15.2 ± 2.3 nM at EGFR-L858R/T790M (setting [5]), 0.062 ± 0.012 µM in data set [1] (setting [6]) and above 10 µM in data set [2] (setting [7]).
In the case of `C=CC(=O)N1CC[C@H](n2c(=O)cnc3cnc(Nc4ccc(N5CCN(C)CC5)cc4OC)nc32)C1` [Compound 1], the IC50 at Wild type EGFR (setting [8]) is 251 nM; at EGFR-L858R/T790M (setting [9]), 129 nM; in data set [1] (setting [10]) it was 12.2 µM; in data set [2] (setting [11]), 13.8 µM. Further, in data set [3] (setting [12]), the solubility came out at 1280 µg/mL (≈ 2610 µM).
For the molecule `C=CC(=O)N1CC[C@@H](n2c(=O)cnc3cnc(Nc4ccc(N5CCN(C)CC5)cc4OC)nc32)C1` [Compound 2], the IC50 on Wild type EGFR (setting [13]) is above 10000 nM; on EGFR-L858R/T790M (setting [14]) it was above 10000 nM; in data set [1] (setting [10]), 18.2 µM; in data set [2] (setting [11]) it was 89.6 µM. Moreover, the solubility in data set [3] (setting [12]) was 11100 µg/mL (≈ 22600 µM).
`C=CC(=O)N1CCC[C@H](n2c(=O)cnc3cnc(Nc4ccc(N5CCN(C)CC5)cc4OC)nc32)C1` [Compound 3]: the IC50 is above 10000 nM at Wild type EGFR (setting [13]), above 10000 nM at EGFR-L858R/T790M (setting [14]), 33.7 µM in data set [1] (setting [10]) and 60.6 µM in data set [2] (setting [11]). Besides, the solubility in data set [3] (setting [12]) was above 11400 µg/mL.
In the case of `C=CC(=O)Nc1cccc(-n2c(=O)cnc3cnc(Nc4ccc(N5CCN(C)CC5)c(OC)c4)nc32)c1` [Compound 4], the IC50 turned out to be 4.5 nM at Wild type EGFR (setting [8]); 3.9 nM at EGFR-L858R/T790M (read-out: IC50 of inhibitory activity on EGFR-T790M/L858R kinase); 0.009 µM in data set [1] (H1975 (EGFR-T790M/L858R), read-out: IC50 of inhibiting proliferation of H1975 cells); 0.009 µM in data set [1] (setting [10]); 0.94 µM in data set [2] (setting [11]). Besides, in data set [3] (20 mM phosphate buffer, pH 6.8, read-out: solubility in water), the solubility was determined as 1370 µg/mL (≈ 2670 µM).
Regarding `C=CC(=O)Nc1cccc(-n2c(=O)cnc3cnc(Nc4ccc(N5CCN(C)CC5)c(C)c4)nc32)c1` [Compound 5], the IC50 was found to be 2.4 nM on Wild type EGFR (setting [8]), 0.6 nM at EGFR-L858R/T790M (setting [9]), 0.006 µM in data set [1] (setting [10]) and 0.82 µM in data set [2] (setting [11]). The solubility in data set [3] (setting [12]) is 122 µg/mL (≈ 246 µM).
For `C=CC(=O)Nc1cccc(-n2c(=O)cnc3cnc(Nc4cc(C)c(N5CCN(C)CC5)cc4OC)nc32)c1` [Compound 6, N-(3-(2-4-((2-methoxy-5-methyl-4-(4-methyl-1-piperazinyl)phenyl)amino)-7-oxo-8(7H)-pteridinyl)phenyl)acrylamide], in that order: 106 nM, 14.8 nM, 0.46 µM, 1.69 µM and 51.8 µg/mL (≈ 98.4 µM).
Regarding `C=CC(=O)Nc1cccc(-n2c(=O)cnc3cnc(Nc4ccc(N5CCN(C(C)=O)CC5)cc4OC)nc32)c1` [Compound 7, N-(3-(2-((4-(4-acetyl-1-piperazinyl)-2-methoxyphenyl)amino)-7-oxo-8(7H)-pteridinyl)phenyl)acrylamide], the IC50 worked out at 45.2 nM at Wild type EGFR (setting [8]), 9.5 nM on EGFR-L858R/T790M (setting [9]), 0.197 µM in data set [1] (setting [10]) and 20.5 µM in data set [2] (setting [11]). Besides, the solubility in data set [3] (setting [12]) was below 25 µg/mL.
With `C=CC(=O)Nc1cccc(-n2c(=O)cnc3cnc(Nc4ccc(CCN5CCN(C)CC5)cc4)nc32)c1` [Compound 8, N-(3-(2-((4-(2-(4-methyl-1-piperazinyl)ethyl)phenyl)amino)-7-oxo-8(7H)-pteridinyl)phenyl)acrylamide], the IC50 came out at 5.7 nM at Wild type EGFR (setting [8]), 2.1 nM on EGFR-L858R/T790M (setting [9]), 0.09 µM in data set [1] (setting [10]) and 0.97 µM in data set [2] (setting [11]). Also, in data set [3] (setting [12]), the solubility amounted to 280 µg/mL (≈ 549 µM).
As to `C=CC(=O)Nc1cccc(-n2c(=O)cnc3cnc(Nc4ccc(N5CCN(C)CC5)cc4OCCOC)nc32)c1` [Compound 10, N-(3-(2-((2-(methoxyethoxy)-4-(4-methyl-1-piperazinyl)phenyl)amino)-7-oxo-8(7H)-pteridinyl)phenyl)acrylamide], the IC50 at Wild type EGFR (setting [8]) was 93.7 nM; on EGFR-L858R/T790M (setting [9]), 191 nM; in data set [1] (setting [10]) it was 2.6 µM; in data set [2] (setting [11]) it was 7.53 µM. Also, the solubility in data set [3] (setting [12]) is 399 µg/mL (≈ 716 µM).
For `C=CC(=O)Nc1cccc(-n2c(=O)cnc3cnc(Nc4ccc(N5CCN(CCO)CC5)cc4OC)nc32)c1` [Compound 11, N-(3-(2-((4-(4-(2-hydroxyethyl)-1-piperazinyl)-2-methoxyphenyl)amino)-7-oxo-8 (7H)-pteridinyl)phenyl)acrylamide], the IC50 at Wild type EGFR (setting [8]) worked out at 2.2 nM; on EGFR-L858R/T790M (setting [9]), 7.3 nM; in data set [1] (setting [10]) it was 0.2 µM; in data set [2] (setting [11]) it was 8.09 µM. Further, the solubility in data set [3] (setting [12]) turned out to be 48.6 µg/mL (≈ 89.6 µM).
In the case of `C=CC(=O)Nc1cccc(-n2c(=O)cnc3cnc(Nc4ccc(N5CCC(N(C)C)CC5)cc4OC)nc32)c1` [Compound 12], the IC50 turned out to be 3.5 nM at Wild type EGFR (setting [8]), 6.2 nM at EGFR-L858R/T790M (setting [9]), 0.006 µM in data set [1] (setting [10]) and 2.52 µM in data set [2] (setting [11]). Besides, the solubility in data set [3] (setting [12]) was 369 µg/mL (≈ 683 µM).
`C=CC(=O)N1CCC(n2c(=O)cnc3cnc(Nc4ccc(N5CCN(C)CC5)cc4OC)nc32)CC1` [Compound 15, 8-(1-acryloyl-4-piperidinyl)-2-((2-methoxy-4-(4-methyl-1-piperazinyl)phenyl)amino)-7(8H)-pteridinone]: the IC50 on Wild type EGFR (setting [8]) was 2300 nM; at EGFR-L858R/T790M (setting [9]), 2250 nM. Further, the solubility in data set [3] (setting [12]) worked out at 514 µg/mL (≈ 1020 µM).
In the case of `C=CC(=O)N1CCCC(n2c(=O)c(-c3ccccc3)nc3cnc(Nc4ccc(N5CCN(C)CC5)cc4OC)nc32)C1` (centres unmarked) [Compound 58, 8-(1-acryloyl-3-piperidinyl)-2-((2-methoxy-4-(4-methyl-1-piperazinyl)phenyl)amino)-6-phenyl-7(8H)pteridinone], the solubility in data set [3] (setting [12]) is below 10 µg/mL.
